From patent US4808620A, “Pyrazolopyridine compounds, their preparation and use as platelet aggregation inhibitors” (Yoshitomi Pharmaceutical Industries, Ltd., priority 1986, dated 1989)
Converted amounts (≈) assume the structure as drawn.

Tests used:
[1] = tested on: Acute Inflammation (carrageenin); assay: Effect on Acute Inflammation (carrageenin hind paw, method of Winter et al); assay type: in vivo, Male Donryu rats; conditions: Rattus norvegicus, po; rats, p.o., 1 h before 1% carrageenin, foot volume 3 h later; read-out: ED50, Pharmacological Experiment (2), acute inflammation
Protocol: Effect on Acute Inflammation
The experiment was performed according to the method of Winter et al described in Proc. Soc. Exp. Biol. Med., vol. 111, p. 544 (1962). Male Donryu rats weighing about 140 g which was fastened for 18 hours were used in groups of five animals. Test compound solution was orally administered and one hour later, 0.05 ml of saline solution containing 1% carrageenin was injected into the right hind paw. Three hours later, the foot volume was measured by the water displacement method. The rate of increase against the foot volume before the injection of carrageenin was calculated, and the inhibitory rate was determined as compared with the control group. The 50% effective dose (ED50, mg/kg) was determined by the linear regression method.

[2] = tested on: Platelet Aggregation induced by Arachidonic Acid; assay: Effect on the Platelet Aggregation induced by Arachidonic Acid; assay type: cell-based, Male Hartley guinea pigs; conditions: Cavia porcellus, guinea pig PRP, 37° C., arachidonic acid 5×10^-4 M, maximum aggregation value, read-out: IC50, Pharmacological Experiment (4), platelet aggregation
Protocol: Effect on the Platelet Aggregation induced by Arachidonic Acid
Male Hartley guinea pigs weighing 400-500 g were subjected to the abdominal operation under etherization. The citrated blood (9 volumes of blood and one volume of 3.8% sodium citrate solution) was collected from the abdominal aorta. Immediately, the blood was centrifuged at 150×g for 3 minutes to obtained platelet-rich plasma (PRP) as a supernatant. The remaining blood was centrifuged at 1400×g for 10 minutes to obtain platelet-poor plasma (PPP) as a supernatant. The number of platelet in PRP was adjusted to 4-6×10^5 platelets/mm^3 by adding PPP thereto The platelet aggregation was measured by using a platelet aggregometer according to the method of Born et al described in J. Physiol., vol. 168, p. 178 (1963). Test compound solution was added to PRP under stirring at 1500 rpm at 37° C., and two minutes later arachidonic acid (final concentration: 5×10^-4 M) is added thereto. The change of transmittance was recorded consecutively. The transmittance was adjusted to 0 and 100% with PRP and PPP, respectively. The inhibitory rate was calculated against the control group by using the maximum aggregation value as an index, and 50% inhibitory concentration(IC50, μg/ml) was determined by the linear regression method.

[3] = tested on: Chronic Inflammation (adjuvant arthritis); assay: Effect on Chronic Inflammation (adjuvant arthritis, method of Newbould); assay type: in vivo, male Lewis rats; conditions: Rattus norvegicus, po; adjuvant arthritis rats, p.o. once a day from 15th to 24th day, decrease of foot volume vs 15th day; read-out: MED, Pharmacological Experiment (3), chronic inflammation
Protocol: Effect on Chronic Inflammation The experiment was performed by employing 10-week old male Lewis rats according to the method of Newbould described in Brit. J. Pharmacol., vol. 21, p. 127 (1963). Dead tubercle bacilli ([…] H5 type) suspended in liquid paraffin (0.5 mg/0.1 ml) was inoculated as adjuvant into the skin at the base of tail. Animals with arthritis were chosen on the 15th day and divided into groups of seven. Test compound solution (5 ml/kg) was orally administered once a day from 15th day of 24th day consecutively. The rate of change of the foot volume on the 24th day against the foot volume on the 15th day was calculated, and the inhibitory rate was determined as compared with the control group. The minimun effective dose (MED, mg/kg) was obtained based on the dose indicating the decrease of foot volume than the foot volume on the 15th day.

[4] = tested on: stretch symptom induced by phenylquinone; assay: Analgesic Activity (phenylquinone-induced stretch symptom, method of Hendershot et al); assay type: in vivo, Male ddY mice; conditions: Mus musculus, po; mice, p.o., 1 h before 0.02% phenylquinone i.p., stretch frequency for 20 min; read-out: ED50, Pharmacological Experiment (1), analgesic activity
Protocol: The experiment was performed according to the method of Hendershot et al described in J. Pharmacol. Exp. Ther., vol. 125, P. 237 (1959). Male ddY mice weighing 18-25 g were used in groups of 6-18. One hour after the oral administration of test compound solution (10 ml/kg), 10 ml/kg of 0.02% aqueous phenylquinone solution was intraperitoneally administered to the animal. The frequency of stretch symptom thus induced measured for 20 minutes. The inhibitory rate was determined in comparison with the control group and the 50% effective dose (ED50, mg/kg) was caluculated according to the linear regression method.

Structure (SMILES)	ED50 [1] [mg/kg]	IC50 [2] [µg/mL]	minimal effective dose [3] [mg/kg]	ED50 [4] [mg/kg]
Cn1nc(-c2cc(C(C)(C)C)c(O)c(C(C)(C)C)c2)c2cccnc21 [Compound A, 3-(3,5-di-tertiarybutyl-4-hydroxyphenyl)-1-methyl-1H-pyrazolo[3,4-b]pyridine]	70	1.05 (≈ 3.11 µM)	0.3	9.5
CC(C)(C)c1cc(-c2nn(CCO)c3ncccc23)cc(C(C)(C)C)c1O [Compound B, 3-(3,5-di-tertiarybutyl-4-hydroxyphenyl)-1-(2-hydroxyethyl)-1H-pyrazolo [3,4-b]pyridine]	44	0.09 (≈ 0.245 µM)	3	19
CCC(=O)OCCn1nc(-c2cc(C(C)(C)C)c(O)c(C(C)(C)C)c2)c2cccnc21 [Compound C, 3-(3,5-di-tertiarybutyl-4-hydroxyphenyl)-1-(2"propionyloxyethyl)-1H-pyrazolo [3,4-]pyridine]	8	0.95 (≈ 2.24 µM)	0.3	1.1
CCOC(=O)CCn1nc(-c2cc(C(C)(C)C)c(O)c(C(C)(C)C)c2)c2cccnc21 [Compound D, 3-(3,5-di-tertiarybutyl-4-hydroxyphenyl)-1-(2-ethoxycarbonylethyl)-1H-pyrazolo [3,4-b]pyridine]	8.3	0.12 (≈ 0.283 µM)	1	0.56
CC(=O)OCCn1nc(-c2cc(C(C)(C)C)c(O)c(C(C)(C)C)c2)c2cccnc21 [Compound E, 1-(acetoxyethyl)-3-(3,5-di-tertiarybutyl-4-hydroxyphenyl)-1H-pyrazolo[3,4-b]pyridine]	14	0.9 (≈ 2.2 µM)	0.3	0.35
